Experimental data from PubChem BioAssay AID2060625 (Molecular Pharmacology Branch, DTP, NCI, 2025).

System: 186277-243-T-J2-PDC spheroids with HUVEC/MSC, viability
Experiment: Anticancer human tumor 186277-243-T-J2-PDC patient-derived colon adenocarcinoma cell line growth inhibition [CLK]
Conditions: for IC50: curve of first compound; for viability, T/C: stronger effect = lower value
Summary of the method: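 Multi-cell-type spheroids combined patient-derived tumor cells with HUVEC endothelial cells and human mesenchymal stem cells. Paired agents were dosed in half-log steps down from about clinical Cmax, or from 10 microM where Cmax was unknown.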

[1] = second compound 0.0316 µM, first compound 0.0316 µM
[2] = second compound 0.0316 µM, first compound 0.1 µM
[3] = second compound 0.0316 µM, first compound 0.316 µM
[4] = second compound 0.0316 µM, first compound 1 µM
[5] = second compound 0.1 µM, first compound 0.0316 µM
[6] = second compound 0.1 µM, first compound 0.1 µM
[7] = second compound 0.1 µM, first compound 0.316 µM
[8] = second compound 0.1 µM, first compound 1 µM
[9] = second compound 0.316 µM, first compound 0.0316 µM
[10] = second compound 0.316 µM, first compound 0.1 µM
[11] = second compound 0.316 µM, first compound 0.316 µM
[12] = second compound 0.316 µM, first compound 1 µM
[13] = second compound 1 µM, first compound 0.0316 µM
[14] = second compound 1 µM, first compound 0.1 µM
[15] = second compound 1 µM, first compound 0.316 µM
[16] = second compound 1 µM, first compound 1 µM
[17] = second compound 3.16 µM, first compound 0.0316 µM
[18] = second compound 3.16 µM, first compound 0.1 µM
[19] = second compound 3.16 µM, first compound 0.316 µM
[20] = second compound 3.16 µM, first compound 1 µM
[21] = second compound 10 µM, first compound 0.0316 µM
[22] = second compound 10 µM, first compound 0.1 µM
[23] = second compound 10 µM, first compound 0.316 µM
[24] = second compound 10 µM, first compound 1 µM
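Note: compound exposure lasted seven days before readout.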
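Throughout, for viability, T/C: 100% = DMSO vehicle control wells.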

Compound: CCc1c2c(nc3ccc(O)cc13)-c1cc3c(c(=O)n1C2)COC(=O)[C@]3(O)CC + CN1CCN(c2cc(C(=O)Nc3cc4cc(-c5cnn(C)c5)ccc4cn3)ccn2)CC1
- IC50 (second compound 0.0316 µM): 22.6 nM
- IC50 (second compound 0.1 µM): 14.1 nM
- IC50 (second compound 0.316 µM): < 3.16 nM
- IC50 (second compound 1 µM): < 3.16 nM
- IC50 (second compound 3.16 µM): < 3.16 nM
- IC50 (second compound 10 µM): < 3.16 nM
- viability, T/C (second compound 0.0316 µM, first compound 0.00316 µM): 82.2%
- viability, T/C (second compound 0.0316 µM, first compound 0.01 µM): 73.1%
- viability, T/C [1]: 39.9%
- viability, T/C [2]: 22.3%
- viability, T/C [3]: 19.1%
- viability, T/C [4]: 14.1%
- viability, T/C (second compound 0.1 µM, first compound 0.00316 µM): 66.9%
- viability, T/C (second compound 0.1 µM, first compound 0.01 µM): 58.6%
- viability, T/C [5]: 31.4%
- viability, T/C [6]: 17.5%
- viability, T/C [7]: 14.3%
- viability, T/C [8]: 8.76%
- viability, T/C (second compound 0.316 µM, first compound 0.00316 µM): 17.9%
- viability, T/C (second compound 0.316 µM, first compound 0.01 µM): 19%
- viability, T/C [9]: 14.4%
- viability, T/C [10]: 8.65%
- viability, T/C [11]: 2.67%
- viability, T/C [12]: 1.34%
- viability, T/C (second compound 1 µM, first compound 0.00316 µM): 1.11%
- viability, T/C (second compound 1 µM, first compound 0.01 µM): 3.1%
- viability, T/C [13]: 1.69%
- viability, T/C [14]: 0.66%
- viability, T/C [15]: 1.14%
- viability, T/C [16]: 1.75%
- viability, T/C (second compound 3.16 µM, first compound 0.00316 µM): 0.95%
- viability, T/C (second compound 3.16 µM, first compound 0.01 µM): 2.49%
- viability, T/C [17]: 1.5%
- viability, T/C [18]: 1.25%
- viability, T/C [19]: 2.1%
- viability, T/C [20]: 1.56%
- viability, T/C (second compound 10 µM, first compound 0.00316 µM): 0.8%
- viability, T/C (second compound 10 µM, first compound 0.01 µM): 1.71%
- viability, T/C [21]: 0.41%
- viability, T/C [22]: 1.3%
- viability, T/C [23]: 0.67%
- viability, T/C [24]: 0.26%

Compound: CCCS(=O)(=O)Nc1ccc(F)c(C(=O)c2c[nH]c3ncc(-c4ccc(Cl)cc4)cc23)c1F + CNC(=O)c1ccc(Nc2nc(OC3CCCC3)c3c(-c4ccc5nc(C)oc5c4)c[nH]c3n2)c(OC)c1
- IC50 (second compound 0.0316 µM): > 10000 nM
- IC50 (second compound 0.1 µM): 6980 nM
- IC50 (second compound 0.316 µM): 3620 nM
- IC50 (second compound 1 µM): < 31.6 nM
- IC50 (second compound 3.16 µM): < 31.6 nM
- IC50 (second compound 10 µM): < 31.6 nM
- viability, T/C [1]: 105%
- viability, T/C [2]: 101%
- viability, T/C [3]: 98.5%
- viability, T/C [4]: 110%
- viability, T/C (second compound 0.0316 µM, first compound 3.16 µM): 103%
- viability, T/C (second compound 0.0316 µM, first compound 10 µM): 78.8%
- viability, T/C [5]: 77%
- viability, T/C [6]: 77.5%
- viability, T/C [7]: 73.7%
- viability, T/C [8]: 92.5%
- viability, T/C (second compound 0.1 µM, first compound 3.16 µM): 79.2%
- viability, T/C (second compound 0.1 µM, first compound 10 µM): 36.7%
- viability, T/C [9]: 50.8%
- viability, T/C [10]: 53%
- viability, T/C [11]: 58.7%
- viability, T/C [12]: 63.6%
- viability, T/C (second compound 0.316 µM, first compound 3.16 µM): 51.7%
- viability, T/C (second compound 0.316 µM, first compound 10 µM): 25.9%
- viability, T/C [13]: 38.9%
- viability, T/C [14]: 38.2%
- viability, T/C [15]: 39.6%
- viability, T/C [16]: 44.6%
- viability, T/C (second compound 1 µM, first compound 3.16 µM): 36.4%
- viability, T/C (second compound 1 µM, first compound 10 µM): 27.3%
- viability, T/C [17]: 33.2%
- viability, T/C [18]: 37.9%
- viability, T/C [19]: 37.9%
- viability, T/C [20]: 37.1%
- viability, T/C (second compound 3.16 µM, first compound 3.16 µM): 33.3%
- viability, T/C (second compound 3.16 µM, first compound 10 µM): 21.6%
- viability, T/C [21]: 37.4%
- viability, T/C [22]: 39.2%
- viability, T/C [23]: 36.6%
- viability, T/C [24]: 34.8%
- viability, T/C (second compound 10 µM, first compound 3.16 µM): 31.6%
- viability, T/C (second compound 10 µM, first compound 10 µM): 24.5%
